Assay results taken from patent publication US11103526B2, “Methods for treatment using small molecule potassium-sparing diuretics and natriuretics” (University of Pittsburgh—Of the Commonwealth System of …, priority 2016, dated 2021).

Key:
[1] = system: RBCs from SCD patients (HbSS); experiment: Hypoxia-induced sickling of RBCs from SCD patients; format: cell-based, human; settings: 2 μmol/L; 1.5 hours pre-incubation, then hypoxia for 3 hours
Method: In addition to causing PH in SCD patients and HIV-infected patients, the contribution of PNPase to RBC sickling in SCD patients was assessed. Fresh RBCs were obtained from two adult SCD patients (HbSS); the RBCs were diluted in F-10 HAM buffer to a final hematocrit of 4%. Next, glucose was added for a final concentration of 5.5 mmol/L, and the samples were incubated at room air/temperature in 12-well plates. The RBCs were then treated with either vehicle, 8-aminoguanosine (2 μmol/L), inosine (2 μmol/L), or an 8-aminoguanosine and inosine combination. After 1.5 hours, the RBCs were placed in a hypoxic glove box and maintained under hypoxia (5% 02) for 3 hours, while undergoing mild agitation. At the end of incubation, to prevent reoxygenation-derived morphological changes, the RBCs were fixed under hypoxic conditions in the hypoxic glove box. The samples were assayed for percent sickling.

[2] = system: anesthetized rats; experiment: Acute cardiovascular and renal effects of an intravenous bolus in anesthetized rats (Example 1); format: in vivo, male Sprague-Dawley rats; settings: 33.5 μmoles/kg intravenous bolus
Method: Animals. This study employed male Sprague-Dawley rats (Charles River; Wilmington, Mass.) that were approximately 16 weeks old. The Institutional Animal Care and Use Committee approved all procedures.
The rats were anesthetized with Inactin (90 mg/kg, i.p.) and placed on an isothermal pad, and body temperature was monitored with a rectal probe thermometer and maintained at 37° C. with a heat lamp. […] A PE-50 cannula was inserted into the jugular vein, and an infusion of 0.9% saline at 25 μl/min was initiated. A PE-10 tubing was placed in the left ureter for urine collection. […] The dose was selected based on preliminary experiments with 8-aminoguanosine. […] Each group of rats (n of at least 6) received only one treatment. Ten minutes after the test agents were administered, urine was collected for another 30 minutes (Period 2: […] into the protocol).
Statistics. Absolute values are presented as the mean±SEM. Fold-increases were calculated as follows: Period 3 value÷Period 1 value. Statistical analyses were performed using analysis of variance (ANOVA) followed by Fisher's Least Significant Difference (LSD) test if the overall effects or interactions in the ANOVA were significant. P<0.05 was considered statistically significant.

[3] = system: MCT-induced PH; experiment: Monocrotaline (MCT)-induced pulmonary hypertension; format: in vivo, male Sprague Dawley rats; settings: 30 mg/kg/day
Method: Because PNPase metabolizes guanosine to guanine, the mechanism by which PNPase activity is associated with PH likely includes guanosine protection against PH. A total of 24 male Sprague Dawley rats were used to determine whether administration of guanosine attenuates the development of PH in animals with MCT-induced PH. Animals were randomly assigned for intraperitoneal (i.p.) injection with either a mixture of 1 ml of 1N HCl neutralized with 1.0 N NaOH and diluted with distillated water (10 ml/kg, Control group; n=8) or MCT (60 mg/kg, […]). The MCT (Sigma, St Louis, Mo.) was dissolved in 1N HCl at 100 mg/ml, which was neutralized with 1 N NaOH and diluted with distillated water to 6 mg/ml. Next, a subset of MCT rats (n=8) were assigned to receive guanosine (30 mg/kg/day). The rats were randomly assigned to the Control, MCT, or MCT+guanosine group.
In this PH model, three weeks after MCT administration, mortality rapidly increases (Ren et al., J Pharmacol Exp Ther., 325:920-926, 2008; Seoane et al., Southern Medical Journal, 94:635-639, 2001). Therefore, animals were monitored for four weeks, and acute measurements of right ventricular pressure and morphometric analyses were performed. Twenty-eight days after administration of MCT, the animals were anesthetized and instrumented for right ventricular peak systolic pressure (RVPSP) measurement. Briefly, a PE-240 polyethylene catheter was inserted into the trachea to facilitate breathing. An angled Milliar Micro-tip pressure transducer catheter SPR-513 (Millar Instruments) was inserted into the right jugular vein and advanced into the right ventricle (RV) for RVPSP measurement. After 30-minutes of stabilization, RVPSP was recorded over 20 minutes. The animals were euthanized by anesthetic overdose, and the heart and lungs were collected for morphometric analyses.

[4] = Period 3 compared with Period 1

## O=c1[nH]cnc2c1ncn2[C@@H]1O[C@H](CO)[C@@H](O)[C@H]1O [inosine, Inosine]
[1]
  hypoxia-induced sickling of RBCs: significantly reduced

## Nc1nc2[nH]c(O)nc2c(=O)[nH]1 [8-hydroxyguanine, 8-Hydroxyguanine]
[2]
  efficacy grouping (diuretic/natriuretic): moderate efficacy
[2]; [4]
  sodium excretion increase: 8.6 fold

## Nc1nc2[nH]cnc2c(=O)[nH]1 [guanine, Guanine, reference compound]
[2]
  efficacy grouping (diuretic/natriuretic): moderate efficacy
[2]; [4]
  sodium excretion increase: 9.4 fold

## Nc1nc2c(ncn2[C@@H]2O[C@H](CO)[C@@H](O)[C@H]2O)c(=O)[nH]1 [guanosine, Guanosine]
[2]
  efficacy grouping (diuretic/natriuretic): little or no efficacy
[3]; 28 days after MCT
  RV dysfunction (RV EDP, contractility index): prevented
  RV hypertrophy (RV mass): attenuated
  inflammatory cell infiltration into the lungs (ED1+ cells): reduced
  pulmonary vascular remodeling: attenuated
[3]; 28 days after MCT 60 mg/kg
  pulmonary hypertension (RVPSP): attenuated

## Nc1nc2[nH]c([N+](=O)[O-])nc2c(=O)[nH]1 [8-nitroguanine, 8-Nitroguanine]
[2]
  efficacy grouping (diuretic/natriuretic): moderate efficacy
[2]; [4]
  sodium excretion increase: 7.8 fold

## Nc1nc2c(nc(O)n2[C@@H]2O[C@H](CO)[C@@H](O)[C@H]2O)c(=O)[nH]1 [8-hydroxyguanosine, 8-Hydroxyguanosine]
[2]
  efficacy grouping (diuretic/natriuretic): moderate efficacy
[2]; [4]
  sodium excretion increase: 7.1 fold

## NC(N)=NC(=O)c1nc(Cl)c(N)nc1N [amiloride, Amiloride, reference compound]
[2]
  effect on heart rate (HR): modestly decreased
  effect on mean arterial blood pressure (MABP): modestly decreased
  effect on mesenteric blood flow (MBF): modestly decreased
  effect on renal blood flow (RBF): modestly decreased
[2]; Period 3 (85-115 min) compared with Period 1 (0-30 min)
  urine volume increase: 4.5 fold
[2]; [4]
  potassium excretion decrease: 96.5%
  sodium excretion increase: 13.6 fold
[2]; in words
  effect on glucose excretion: did not change

## Nc1nc2c(nc(O)n2[C@H]2C[C@H](O)[C@@H](CO)O2)c(=O)[nH]1 [8-hydroxy-2-deoxyguanosine]
[2]
  efficacy grouping (diuretic/natriuretic): little or no efficacy

## Nc1nc2c(nc([N+](=O)[O-])n2[C@@H]2O[C@H](CO)[C@@H](O)[C@H]2O)c(=O)[nH]1 [8-nitroguanosine]
[2]
  efficacy grouping (diuretic/natriuretic): little or no efficacy
